Like-named read-outs stand apart in the source and are kept apart here.
Legend:
[1] = test system: serotonine and 5-hydroxy-indolylacetic acid levels of the cerebrum; assay: Serotonine and 5-hydroxy-indolylacetic acid levels of the cerebrum (brain) in rats, % of controls; assay type: in vivo, male Wistar rats; settings: rat; for response vs control in vivo at 500 mg/kg: po, p.o.
Method: (§1) The tests were performed on male Wistar rats weighing 150 to 200 g. The dopamine-β-hydroxylase inhibiting effects of the compounds were evaluated by determining the change of noradrenaline, dopamine and adrenaline levels of the cerebrum, heart, spleen and adrenal gland. The serotonine and 5-hydroxy-indolylacetic acid levels of the cerebrum were also determined. The measurements were performed as follows:
(§2) The animals were decapitated, the cerebrum, heart, spleen and adrenal gland were removed quickly, and the organs were frozen by placing them on a metal sheet cooled with dry ice. The frozen organs were stored for a maximum of one night at -20° C.
In a further test series the serotonine and 5-hydroxy-indolylacetic acid contents were also determined, in addition to the determination of the noradrenaline and dopamine content, from the same sample. In this instance the brains were homogenized in 10 ml of 75% ethanol, 0.2 ml of EDTA-Na2 and 5% of ascorbic acid were added to the homogenized mixtures, and the homogenized mixtures were maintained at -20° C. overnight. The mixtures were centrifuged as described above, and 5.0 ml samples of the supernatant were removed. The samples were diluted with equal volumes of distilled water, and poured onto ion exchange columns of 0.5×1.5 cm dimensions, filled with buffered Amberlite CG-30 (200 to 400 mesh). The columns were washed with 5 ml of distilled water followed by 1.0 ml of 0.2 N hydrochloric acid, and the first effluent and the aqueous wash were collected for the determination of 5-hydroxy-indolylacetic acid. Elution was continued with a further 1.2 ml quantity of 0.2 N hydrochloric acid in order to remove noradrenaline, dopamine and serotonine. Samples of 0.3 ml were used for the determinations.
Noradrenaline and dopamine were determined by the method of Shellenberger, modified as described above, whereas serotonine was determined by the method of Curzon et al. (Brit. J. Pharmacol. 39, 653 (1970)). The basic method was modified as follows: A 0.5% solution of ortho-phthal(di)aldehyde in absolute ethanol was diluted with […] hydrochloric acid to 50-fold of its original volume, and 0.6 ml of the resulting 0.01% ortho-phthal(di)aldehyde solution were added immediately to 0.5 ml of the serotonine-containing sample. The sample was placed in a hot water bath for 10 minutes, thereafter cooled with tap water, and the flourescence was recorded at wavelengths of 360 nm (excitation) and 490 nm (emission).
5-Hydroxy-indolylacetic acid was determined from the mixture of the first effluent and the aqueous wash. 10 ml of distilled water and 0.2 ml of concentrated hydrochloric acid were added to the mixture, and the sample was poured onto a 0.8×4.0 cm column filled with Sephadex G-10. The column was washed with 15 ml of 0.1 N hydrochloric acid followed by 1.8 to 2.0 ml of 0.02 N aqueous ammonia, and then 5-hydroxy-indolylacetic acid was eluted with further 2.0 ml of the aqueous ammonia. 0.5 ml samples were used in the measurements, and the determination was performed according to the method of Korf et al. (Biochem. Pharmacol. 20, 659 (1971)).
In the tests disulfiram, 2,2-dipyridyl, bis(1-methyl-4-homopiperazinyl-thiocarbonyl)-disulfide, sodium diethyldithiocarbamate and N-phenyl-N'-(2-thiazolyl)-thiourea were used as reference substances. The values indicated in Table 1 are the percentages in relation to the amine levels of the controls measured in the same tests (±standard error). The statistical calculations were performed on a TPA/i type computer, using Student's t test.

[2] = in vivo; settings: mouse, in vivo, mice
[3] = test system: dopamine-β-hydroxylase; settings: literature, cited from earlier work; for dopamine-β-hydroxylase inhibiting effects, in words / duration of dopamine-β-hydroxylase inhibiting effect, in words: known compounds
[4] = test system: dopamine-β-hydroxylase; assay: Noradrenaline and dopamine levels of the cerebrum (brain) in rats, % of controls; assay type: in vivo, male Wistar rats; settings: rat, i.p., 400 mg/kg, time not given
Method: The dopamine-β-hydroxylase inhibiting effects of the new compounds according to the invention were examined by the following tests:
as §1, §2
The organs were weighed in the frozen state and then homogenized in 5.0 ml of 0.4 N perchloric acid containing 0.05% of EDTA-Naa and 0.1% of Na2 S2 O5. The homogenized mixtures were centrifuged as described above for the treatment of adrenal gland, the supernatants were decanted, and the pH was adjusted to 8.0±0.1 with a 0.1 molar tris buffer containing 20 g/l of NaOH and 25 g/l of EDTA-Na2. 100 mg of prepared Al2 O3 (Anton et al.: J. Pharm. Ther. 138, 360 (1962)) were added to the samples, and the mixtures were shaken mechanically for 20 minutes. Thereafter the Al2 O3 was washed with 2×10 ml of distilled water, and noradrenaline was eluted with 1.0 ml of 0.05 N perchloric acid. 0.5 ml samples of the eluate were used for the determination of noradrenaline. Noradrenaline was determined according to the method of Shellenberger et al. (Anal. Biochem. 39, 356 (1971)), with the following modifications of the basic procedure: 0.5 ml of 0.1 molar Na-K-phosphate buffer, containing 9 g/l of EDTA-Na2, were added to 0.5 ml of the eluate, and the catecholamines (noradrenaline in the examination of heart and spleen and noradrenaline and dopamine in the examination of the cerebrum) were oxidized with 0.1 ml of a 0.1 N iodine solution in 5% potassium iodide. After exactly 2 minutes, oxidation was stopped by adding 0.25 ml of a 2.5% sodium sulfite solution in 4.4 N aqueous sodium hydroxide to the mixture. 2 minutes after the introduction of the alkaline sulfite solution, 0.2 ml of concentrated acetic acid was added to the samples, whereupon the pH decreased to 4.4 to 4.5. Thereafter the samples were placed for 5 minutes in a drying oven heated to 100° C., and then the samples were cooled with ice water. The fluorescency of noradrenaline was measured with an OPTON spectrophotometer at wavelengths of 380 nm (excitation) and 490 nm (emission).
The brains were homogenized in 10 parts by volume of 0.4 N perchloric acid. The homogenized mixture was stored at -20° C. overnight; thereafter it was thawed and centrifuged as described above. A sample of the homogenized mixture corresponding to 0.5 g of brain was removed, the pH of the sample was adjusted to 8.0±0.1 with 0.1 molar tris-buffer of the above composition, and the sample was processed as described above for the determination of the noradrenaline content of heart and spleen, with the difference that 1.5 ml of 0.05 N perchloric acid was used as the eluting agent. 0.5 ml of the eluate was used to determine the noradrenaline and dopamine contents. The measurement was performed as described above, with the difference that samples of 0.5 ml were applied for the recording of the flourescence of noradrenaline. The residue was placed for 50 minutes into a drying oven heated to 100° C., thereafter the sample was cooled with ice water, and the fluorescence of dopamine was recorded at wavelengths of 325 nm (excitation) and 380 nm (emission).
In a further test series the serotonine and 5-hydroxy-indolylacetic acid contents were also determined, in addition to the determination of the noradrenaline and dopamine content, from the same sample. […]

[5] = ip, i.p., 4 hours, read-out: Brain 5-HIAA level (percentages in relation to the controls)
[6] = ip, i.p., 4 hours, read-out: Brain SE level (percentages in relation to the controls)
[7] = ip, i.p., 8 hours, read-out: Brain 5-HIAA level (percentages in relation to the controls)
[8] = ip, i.p., 8 hours, read-out: Brain SE level (percentages in relation to the controls)

Row | Compound | response vs control in vivo at 200 mg/kg [1, 6] | response vs control in vivo at 200 mg/kg [1, 8] | LD50 ([2]; ip) | dopamine-β-hydroxylase inhibiting effects, in words [3] | other results
1 | S=C(SSC(=S)C1=C(NC2CCCCC2)CCC1)C1=C(NC2CCCCC2)CCC1 [M-5, 2-(N-cyclohexyl)-amino-cyclopent-1-ene-thiocarboxylic acid disulfide] | 104 ± 7.6% | 105 ± 4.5% | > 1000 mg/kg | – | response vs control in vivo at 200 mg/kg [1, 5]: 143 ± 8%; response vs control in vivo at 200 mg/kg [1, 7]: 178 ± 10.8%
2 | C=CCNC1=C(C(=S)SSC(=S)C2=C(NCC=C)CCC2)CCC1 [M-7, 2-(N-allyl)-amino-cyclopent-1-ene-thiocarboxylic acid-disulfide] | 113 ± 8% | 108% | > 1000 mg/kg | – | response vs control in vivo at 200 mg/kg [1, 5]: 117 ± 6.5%; response vs control in vivo at 200 mg/kg [1, 7]: 126 ± 10.5%
3 | NOCc1ccccc1 [Benzyloxyamine] | – | – | – | exert dopamine-β-hydroxylase inhibiting effects | duration of dopamine-β-hydroxylase inhibiting effect, in words [3]: only active for a short period
4 | CC(N)Cc1ccccc1 (stereo not shown) [amphetamine] | – | – | – | possess dopamine-β-hydroxylase inhibiting effects | –
5 | CCNC1=C(C(=S)SSC(=S)C2=C(NCC)CCC2)CCC1 [M-6, 2-(N-ethyl)-amino-cyclopent-1-ene-thiocarboxylic acid-disulfide] | 112 ± 5.2% | 104 ± 7.4% | 1000 to 1500 mg/kg | – | response vs control in vivo at 100 mg/kg ([1]; ip, i.p., 100 mg/kg, 4 hours, read-out: Brain SE level (percentages in relation to the controls)): 107 ± 2.2%; response vs control in vivo at 200 mg/kg [1, 5]: 155 ± 8.5%; response vs control in vivo at 200 mg/kg [1, 7]: 195 ± 4.8%; response vs control in vivo at 500 mg/kg ([1]; 4 hours, read-out: Brain SE level (percentages in relation to the controls)): 118 ± 4.6%; response vs control in vivo at 500 mg/kg ([1]; 8 hours, read-out: Brain SE level (percentages in relation to the controls)): 91.2 ± 0.9%
6 | O=C(CO)c1coc(=O)c2c(O)cccc12 [Oosponol] | – | – | 40 mg/kg | strong dopamine-β-hydroxylase inhibiting effects | LD50 ([2]; po): 280 mg/kg
7 | Dopastine | – | – | – | strong dopamine-β-hydroxylase inhibiting effects | –
8 | CCN(CC)C(=S)S [diethyl dithiocarbamate] | – | – | – | strong dopamine-β-hydroxylase inhibiting effects | –
9 | NNCc1ccccc1 [benzylhydrazine] | – | – | – | exert dopamine-β-hydroxylase inhibiting effects | duration of dopamine-β-hydroxylase inhibiting effect, in words [3]: only active for a short period
10 | NNc1nncc2ccccc12 [Hydralazine] | – | – | 83 mg/kg | possess dopamine-β-hydroxylase inhibiting effects | –
11 | Cn1cc[nH]c1=S [methimazol] | – | – | – | possess dopamine-β-hydroxylase inhibiting effects | –
12 | CCN(CC)C(=S)[S-].[Na+] [DDC-Na, sodium diethyldithiocarbamate] | – | – | – | – | Brain DA level (percentages in relation to the controls) [4]: 120%; Brain NA level (percentages in relation to the controls) [4]: 64.1%
13 | CCCCNC1=C(C(=S)SSC(=S)C2=C(NCCCC)CCC2)CCC1 [M-2, 2-(N-butyl)-amino-cyclopent-1-ene-thiocarboxylic acid-disulfide] | 97.6% | 97.3 ± 11.3% | – | – | –
14 | CN1CCCN(C(=S)SSC(=S)N2CCCN(C)CC2)CC1 [FLA-63, bis(1-methyl-4-homopiperazinyl)-thiocarbonyl-disulfide] | – | – | 150 mg/kg | – | response vs control in vivo at 50 mg/kg [1, 5]: 134%; response vs control in vivo at 50 mg/kg [1, 6]: 124%; dopamine-β-hydroxylase inhibition in vivo, in words ([3]; in vivo conditions): one of the most potent dopamine-β-hydroxylase inhibitors under in vivo conditions
15 | NC1=C(C(=S)SSC(=S)C2=C(N)CCC2)CCC1 [M-1] | 115 ± 4.7% | 111 ± 5.1% | ~800 mg/kg | – | response vs control in vivo at 200 mg/kg [1, 5]: 152%; response vs control in vivo at 200 mg/kg [1, 7]: 125 ± 10.7%
16 | CCCCc1ccc(C(=O)O)nc1 [Fusaric acid, 5-butyl-picolinic acid] | – | – | – | strong dopamine-β-hydroxylase inhibiting effects | LD50 ([2]; po): 230 ± 25 mg/kg

Reference: patent US4179467A, “Dopamine hydroxylase inhibiting 2-amino-cyclopent-1-ene-1-thiocarboxylic acid-disulfides” (Richter Gedeon Vegyeszeti Gyar Rt., priority 1976, dated 1979)
